# Source: US20240335408A1, “Soluble Guanylate Cyclase Activators for Cancer and Fibrosis Treatment” (University of Pittsburgh - of the Commonwealth System of …, priority 2023, published 2024)
# Assays:
# [1] = tested on: luciferase (luc) expressing TRAMP-C1 cells; test: TRAMP-C1 cell survival after single dose irradiation (bioluminescence, 96-well); type: cell-based, mouse; conditions: for survival (% of bioluminescence before irradiation): single 8 Gy dose, drugs from 4 days after irradiation for 7 days, cinaciguat, p62 inducer, enzalutamide 1 μM, 8-bromo-cGMP 100 μM, DETA-NONOate 100 M (so in the source); for effect on irradiation-induced cell death: single dose 8 Gy irradiation, TRAMP-C1 cells, preliminary studies
# Experimental: FIG. 4. The effect of single-dose and fractionated irradiation on TRAMP-C1 cell survival. A) Cells were plated at 5,000 cells/well in 96-well plates and subjected to single dose irradiation of 0 or 8 Gy. Four days following irradiation cells were treated with cinaciguat (1 μM), p62 inducer (1 μM), enzalutamide (1 μM), DETA-NONOate ([…]), 8-bromo-cGMP (100 μM) or vehicle (0.1% DMSO) for 1 week. Bioluminescence was measured before and after irradiation, and following drug treatment. […] B) Determination of 6 Gy as the optimal 5-day fractionated radiation dose based on cell survival.
# Effect of drugs targeting NO·-cGMP pathway, mitophagy and AR signaling on TRAMP-C1 survival after single dose irradiation and determination of optimal fractionated irradiation protocol. To assess whether promoting NO·-cGMP signaling, induction of mitophagy or AR inhibition would enhance the effect of radiation treatment, the effect of these different drugs on cultured luciferase (luc) expressing TRAMP-C1 cells was examined in a 96-well plate format. Bioluminescence was assessed before irradiation after which the cells were exposed to a single 8 Gy radiation dose. Four days after irradiation cells were treated with the different drugs for a further 7 days. […] To determine the optimal fractionated irradiation dosing protocol, fractionated irradiation protocols were examined in cultured cells over a 5-day period. […] Therefore, 6 Gy per day for 5 days can be used as a dosing protocol.
# Cell culture. Luciferase expressing TRAMP-C1 cells may be maintained in DMEM supplemented with 10% FBS, 1% PenStrep, 5 μg/ml insulin and 10 nM dehydroisoandrosterone and used at 10-15 passages. For experiments in Examples 1-3 cells may be plated at 5,000 cells/well in 96-well plates.
# Bioluminescence in vitro and in vivo imaging. Cells may be treated with 150 μM luciferin D and immediately placed in Tecan SPECTRA Fluor Plus plate reader for bioluminescence measurement. Readings may be averaged for each group of cells (n≥ 8) and background (empty well readings) subtracted. Mice may be anesthetized with avertin (300 mg/kg, IP), depilated and injected with 150 mg/kg luciferin D, IP. They may be […] in a BioRad ChemiDoc MP imaging system in the supine position. Bioluminescence may be imaged for 600 sec using the Chemi Hi sensitivity protocol, intensity expressed colorimetrically, superimposed over images of the mice.
# [2] = given via i.v. drip; cited from earlier work
# [3] = Blood pressure and heart rate under cinaciguat treatment; type: in vivo, mice
# [4] = tested on: bladder of CyB5R3 smooth muscle conditional knockout mice; conditions: acute intraperitoneal injection; cited from earlier work
# Bcl-2/BAX ratio = conditions: aged mice, reversal of benign prostatic hyperplasia; previously demonstrated; cited from earlier work
# [5] = tested on: mouse bladder with chronic radiation cystitis; test: Chronic radiation cystitis in mice: cystometry (CMG) and bladder collagen staining; type: in vivo
# Source text: FIG. 12 Effects of cinaciguat on a mouse bladder with chronic radiation cystitis. A) Cystometry (CMG), non-irradiated mouse. B) CMG, 9 weeks following bladder irradiation (10 Gy). C) CMG, irradiation+daily gavage for 2 weeks with cinaciguat. D) Active and (E-F) passive length-tensions from irradiated+vehicle (red) vs. irradiated+cinaciguat (blue) bladder strips. G-I) Bladder cross-sections stained with Verhoeff Van Gieson solution; collagen is stained pink. J) Collagen, % area of the bladder wall, N=4. K) bladder weight in mg, control vs. irradiated (irr)>9 wks; N=5 ea.
# Furthermore, irradiation decreases bladder weight by approximately 30% that could be attributed to muscle atrophy (FIG. 12 (K)).
# [6] = tested on: sGCα1, Bcl-2/BAX and NF-κβ; test: Immunolocalization of sGCα1, Bcl-2/BAX and NF-κβ in orthotopic TRAMP-C1 tumor sections; type: in vivo, mouse; conditions: fractionated irradiation plus 1 mg/kg/day for two weeks
# Experimental: FIGS. 7A and 7B. Alterations in the sGCα1, Bcl-2/BAX ratio and NF-κβ nuclear localization in prostate tumors from non-irradiated mice, and irradiated mice treated with cinaciguat or p62 inducer based on immunolabeling intensity. A)-C) sGC α1 immunolabeling in A) non-irradiated orthotopic TRAMP-C1 tumors. B) orthotopic tumor from mouse receiving fractionated irradiation followed by two weeks of cinaciguat (1 mg/kg/day) treatment. C) orthotopic tumor from mouse receiving fractionated irradiation followed by two weeks of p62 mitophagy inducer (1 mg/kg/day) treatment. D)-F) Immunolabeling for Bcl-2 of D) non-irradiated orthotopic TRAMP-C1 tumor. E) orthotopic tumor from mouse receiving fractionated irradiation and cinaciguat treatment. F) orthotopic tumor from mouse receiving fractionated irradiation and p62 mitophagy inducer treatment. G-I) Immunolabeling for NF-κβ of G) non-irradiated orthotopic TRAMP-C1 tumor. H) orthotopic tumor from mouse receiving fractionated irradiation and cinaciguat treatment. I) orthotopic tumor of mouse receiving fractionated irradiation and p62 mitophagy inducer treatment. J) Bar chart for ratio of sGCα1 positive area to total cell area. K) Bar chart of Bcl-2 positive staining versus BAX positive staining in sequential sections from each group. […] Green fluorescence—immunolabeling, Blue—DAPI, nuclei. […]
# [7] = tested on: orthotopic TRAMP-C1 tumors; test: Orthotopic TRAMP-C1 tumors after fractionated irradiation, prostate tissue weight; type: in vivo, C57BI/6 mice; conditions: 2 Gy fractions x 5 days; after one week osmotic pump 1 mg/kg/day for 14 days; vs irradiation alone
# Experimental: FIG. 5. TRAMP-C1 orthotopic tumors and the effects of irradiation. A) TRAMP-C1 cells (10^7 cells/100 μl) were injected bilaterally into the ventrolateral prostatic lobes to create the orthotopic tumor mouse model. […] B) TRAMP-C1 tumor in a non-irradiated mouse 5 weeks after cell injection. C) Tumor following fractionated irradiation (2 Gy×5 days, starting 4 weeks post injection). D) Prostate wet weight in control, non-irradiated and irradiated tumor bearing animals.
# FIG. 6. Bioluminescence imaging of prostate tumors and prostate size assessment following treatments. A) Image of colorimetrically expressed bioluminescence intensity superimposed over the mouse image. B) Prostates were excised from non-injected control, injected non-irradiated and injected irradiated (2 Gy×5 days) mice with or without treatments (P62 inducer or cinaciguat, 1 mg/kg/day for 2 weeks by ALZET pumps starting 1 week post irradiation). C) Timeline of tumor growth based on preliminary data.
# Development of orthotopic TRAMP-C1 tumors in C57BI/6 mice and the effect of fractionated irradiation. […] At the conclusion of the treatment, tumor weights were evaluated. Without any intervention (drug or irradiation), there was a significant increase in tumor mass evaluated as total prostate tissue weight (FIG. 6 (B)).
structure (smiles),measurement,setting,value
CNC(=O)c1ccc(N2C(=S)N(c3ccc(C#N)c(C(F)(F)F)c3)C(=O)C2(C)C)cc1F [enzalutamide],survival (% of bioluminescence before irradiation),[1],80±11%
same,effect on irradiation-induced cell death,[1],protected the cells and not
"O=C(O)CCCCN(CCc1ccccc1OCc1ccc(CCc2ccccc2)cc1)Cc1ccc(C(=O)O)cc1 [cinaciguat, 4-({(4-carboxybutyl)[2-(2-{[4-(2-phenylethyl)phenyl]methoxy}phenyl)ethyl]amino}methyl) benzoic acid]",blood pressure effect (hypotension),[2],induced hypotension
same,effect on blood pressure,"[3]; infused post irradiation 0.1-1 mg/kg/day for 28 days via osmotic pumps, preliminary data",without adversely affecting blood pressure
same,effects on blood pressure and heart rate,[3]; once-a-day oral 10 mg/kg,only transient effects on blood pressure and heart rate
same,intercontractile interval (ICI),[4],increased ICI
same,non-voiding contractions,[4],eliminated non-voiding contractions
same,Bcl-2/BAX ratio,Bcl-2/BAX ratio,decreasing the Bcl-2/BAX ratio
same,bladder wall structure (collagen staining),"[5]; chronically irradiated mice, Verhoeff Van Gieson staining",bladder wall structure similar to non-irradiated controls
same,CMG profile,"[5]; daily gavage 10 mg/kg/day starting 7 weeks post irradiation (10 Gy), 2 weeks",normalized the CMG profile
same,collagen content of bladder wall,[5]; doubling of collagen 9 weeks post irradiation,reversed
same,"sGCα1, Bcl-2/BAX and NF-κβ immunolabeling in tumor",[6],all three markers were reduced
same,tumor mass evaluated as total prostate tissue weight,[7],marked decrease compared to irradiation alone
same,survival (% of bioluminescence before irradiation),[1],31±13%
same,effect on irradiation-induced cell death,[1],potentiated
same,effect on irradiation-induced cell death,[1]; listed as Cinaciguat,most effective in promoting irradiation-induced tumor cell death
NCCN(CCN)/[N+]([O-])=N/O [DETA-NoNoate],survival (% of bioluminescence before irradiation),[1],62±13%
same,effect on irradiation-induced cell death,[1]; listed as DETA NoNoate,not
same,effect on irradiation-induced cell death,[1]; listed as DETA-NONOate,did not enhance irradiation-induced cell death
Nc1nc2c(nc(Br)n2[C@@H]2O[C@@H]3COP(=O)(O)O[C@H]3[C@H]2O)c(=O)[nH]1 [8-bromo-cGMP],survival (% of bioluminescence before irradiation),[1],65±7%
same,effect on irradiation-induced cell death,[1],did not enhance irradiation-induced cell death
